Assay results from US20060129225A1, “Device for the delivery of a cardioprotective agent to ischemic reperfused myocardium” (priority 2004, published 2006).

Legend:
[1] = test system: human coronary artery smooth muscle cell proliferation; test: In vitro cell culture study of coronary artery smooth muscle cell proliferation; format: cell-based
Text: FIG. 51 is a graph of the inhibition of coronary artery smooth muscle cells by trichostatin A in a cell culture study.

[2] = test system: tumor cell lines; conditions: cited from earlier work
[3] = test system: human coronary artery smooth muscle cells; test: Anti-proliferative activity in synchronized cultured human coronary artery smooth muscle cells stimulated with two percent fetal bovine serum; format: cell-based
Text: (§1) The multiple curves represent various concentrations of topotecan ranging from zero to three hundred nanomolar concentrations.
(§2) The multiple curves represent various concentrations of etoposide ranging from zero to eight hundred nanomolar concentrations.
The multiple curves represent various concentrations of Panzem® ranging from zero to 100 micromolar concentrations.

[4] = test system: human coronary artery smooth muscle cell survival; test: MTS cytotoxicity assay; format: cell-based; conditions: concentrations up to 30,000.00 nanomolar (tested from 6.6 nanomolar)
Text: Typically, a control is utilized to determine baseline toxicity.

[5] = test system: cell viability; test: Cell viability assay; format: cell-based
Text: as §1, §2

[6] = In vivo release kinetics from polymeric stent coatings in porcine pharmacokinetics studies
[7] = test system: human coronary artery smooth muscle cells; test: Anti-proliferative activity in non-synchronized cultured human coronary artery smooth muscle cells stimulated with two percent fetal bovine serum; format: cell-based
Text: The multiple curves represent various concentrations of mycophenolic acid ranging from zero to one thousand nanomolar concentrations.
FIG. 58 illustrates, in graphical format, the anti-proliferative activity of cladribine in non-synchronized cultured human coronary artery smooth muscle cells stimulated with two percent fetal bovine serum.
The multiple curves represent various concentrations of cladribine ranging from zero to nine hundred nanomolar concentrations.

[8] = test system: human smooth muscle cells; test: PDGF AB-stimulated proliferation of human smooth muscle cells (cell count, day six); format: cell-based; conditions: from the IC50 values
Procedure: To assess the ability of cladribine to prevent cell proliferation, human smooth muscle or endothelial cells (Clonetics, Walkersville, Md.) were seeded at a density of 2000 cells/cm^2 (approximately 3600 cells/well) into each well of 12-well plates and cultured with 1.5 ml of growth medium containing five percent fetal calf serum (FCS). After twenty-four hours, the growth medium was changed and fresh medium containing 10 ng/ml platelet-derived growth factor AB (PDGF AB; LIFE Technologies), as well as various concentrations of cladribine (0.001-10,000 nM) were added with triplicate wells. Medium was replaced with fresh cladribine-containing medium after three days. On day six, cells were detached by trypsinization to yield a cell suspension, lightly centrifuged to pellet and then counted manually using a Neubauer hemocytometer system. Cell viability was assessed by trypan blue exclusion.

[9] = Liquid formulations with Vitamin E TPGS, ethanol and water (HPLC assay, visual observation); format: physicochemical; conditions: ethanol less than two percent, water

Which IC50 ([1]; human coronary artery smooth muscle cells, read-out: anti-proliferative IC50) does the source give for `CC(/C=C/C(=O)NO)=C\[C@@H](C)C(=O)c1ccc(N(C)C)cc1` [trichostatin A] here?
The IC50 was ~6 nM.

What about the “inhibition of human coronary artery smooth muscle cell proliferation” value ([1]; in vitro cell culture) of the same compound?
The value was “completely inhibit”.

And the “anti-proliferative IC50” value [2]?
Its value is “low nM range”.

What does the source list for `COc1cc2c(cc1O)CC[C@@H]1[C@@H]2CC[C@]2(C)[C@@H](O)CC[C@@H]12` [Panzem®, 2-methoxyestradiol]?
effect of addition to cells treated with rapamycin on percent of inhibition ([3]; Panzem 0.813 to 100 micromolar): increases the percent of inhibition of rapamycin alone; inhibition of human coronary artery smooth muscle cell proliferation in vitro ([3]; Panzem alone, synchronized cells): extremely effective inhibitor; human coronary artery smooth muscle cell survival (MTS assay) [4]: do not reduce

Which “effect of addition to cells treated with rapamycin on percent inhibition” value (“effect of addition … on percent inhibition” below) ([3]; topotecan 18.8 to 300 nanomolar) does the source give for `CC[C@@]1(O)C(=O)OCc2c1cc1n(c2=O)Cc2cc3c(CN(C)C)c(O)ccc3nc2-1` [topotecan] here?
The value was “increases the percent inhibition of rapamycin alone”.

And the “cytotoxicity in a separate cell viability assay” value ([5]; concentrations up to one micromolar)?
Its value is “non-cytotoxic”.

With `COc1cc([C@@H]2c3cc4c(cc3[C@@H](O[C@@H]3O[C@@H]5CO[C@@H](C)O[C@H]5[C@H](O)[C@H]3O)[C@H]3COC(=O)[C@H]23)OCO4)cc(OC)c1O` [etoposide] as the compound, how does the “effect of addition … on percent inhibition” value ([3]; etoposide 255.7 to eight hundred nanomolar) read?
The value was “increases the percent inhibition of rapamycin alone”.

And the “cytotoxicity in a cell viability assay” value ([5]; concentrations up to ten micromolar)?
Its value is “non-cytotoxic”.

For `CO[C@H]1C[C@@H]2CC[C@@H](C)[C@@](O)(O2)C(=O)C(=O)N2CCCC[C@H]2C(=O)O[C@H]([C@H](C)C[C@@H]2CC[C@@H](O)[C@H](OC)C2)CC(=O)[C@H](C)/C=C(\C)[C@@H](O)[C@@H](OC)C(=O)[C@H](C)C[C@H](C)/C=C/C=C/C=C/1C` [rapamycin], which “in vivo release rate compared with mycophenolic acid” value ([6]; PVDF basecoat six hundred micrograms, PVDF topcoat two hundred micrograms, porcine) is on record?
The value was “slower release rate than that of mycophenolic acid”.

With `COc1c(C)c2c(c(O)c1C/C=C(\C)CCC(=O)O)C(=O)OC2` [mycophenolic acid] as the compound, how does the “effect on the anti-proliferative rapamycin dose response curve” value ([7]; mycophenolic acid zero to one thousand nanomolar added to cells treated with rapamycin) read?
The value was “potentiates the anti-proliferative activity of rapamycin”.

What about the “in vivo release from coating compared with rapamycin” value ([6]; EVA/BMA basecoat with 180 μg rapamycin and 180 μg mycophenolic acid, no, 100 or 200 μg BMA topcoat, porcine) of the same compound?
Its value is “elutes more completely over a shorter duration than the rapamycin”.

For `Nc1nc(Cl)nc2c1ncn2[C@H]1C[C@H](O)[C@@H](CO)O1` [cladribine, 2-chlorodeoxyadenosine], which “effect of addition … on percent inhibition” value ([7]; cladribine 56.25 to 900 nanomolar) is on record?
The value was “increases the percent inhibition of rapamycin alone”.

What about the “inhibition of human coronary artery smooth muscle cell proliferation” value ([7]; non-synchronized cells, two percent fetal bovine serum) of the same compound?
The value was “completely inhibits”.

And the “potency as inhibitor of smooth muscle cells relative to endothelial cells” value [8]?
Its value is “approximately twice”.

What about the “in vivo elution compared with rapamycin” value ([6]; EVA/BMA basecoat with rapamycin and cladribine, 200 μg BMA topcoat, Bx Velocity stents, Yorkshire pigs) of the same compound?
Its value is “elutes more rapidly than rapamycin”.

What about the “in vivo elution from coating over time” value ([6]; PVDF/HFP (85/15) basecoat 1800 μg with thirty percent cladribine, 300 μg topcoat, Bx Velocity stents, Yorkshire pig, after the first day) of the same compound?
The value was “levels off significantly”.

Which “concentration of CCI-779 in the final solution (HPLC assay)” value [9] does the source give for `CO[C@H]1C[C@@H]2CC[C@@H](C)[C@@](O)(O2)C(=O)C(=O)N2CCCC[C@H]2C(=O)O[C@H]([C@H](C)C[C@@H]2CC[C@@H](OC(=O)C(C)(CO)CO)[C@H](OC)C2)CC(=O)[C@H](C)/C=C(\C)[C@@H](O)[C@@H](OC)C(=O)[C@H](C)C[C@H](C)/C=C/C=C/C=C/1C` [CCI-779] here?
Its value is 15 mg/mi.
